The source of these data is patent US20240229098A1, “BIOLUMINOGENIC ASSAY FOR DRUG-RESISTANCE BACTERIA DETECTION” (priority 2021, published 2024).

In one test the target is IMP-1 (Serratia marcescens, UniProt P52699). Conditions: D-luciferin 10 μM, IMP-1 10, 20, 50, 100 nM, 15 min, PBS pH 7.4.
Test [1] concerns the target T1, TEM-1 (Escherichia coli, UniProt P62593). The conditions noted are these: D-luciferin 10 μM, TEM-1 10, 20, 50, 100 nM, 15 min, PBS pH 7.4.
Procedure: Bioluminescent signal was measured after the addition of bioluminescent reagent. Statistical significance was calculated using the unpaired two-tailed Student's t test (** p<0.01, **** p<0.0001).
The study was duplicated at room temperature with PBS (pH=7.4). Statistical significance was calculated using the unpaired two-tailed Student's t test (ns: not significant). The study was duplicated at room temperature with PBS (pH=7.4) as the buffer. Data were collected on a SpectraMax iD3 multimode microplate reader.
A further test addresses T2, firefly luciferase (Photinus pyralis, UniProt P08659).
T2 construct: purchased Promega E1701
Kind of test: Background bioluminescence and oxidation of pro-luciferin probes on repeated addition of firefly luciferase. The class given is biochemical. The conditions noted are these: for bioluminescence emission on additional batches of firefly luciferase: repeated firefly luciferase addition, no β-lactamase. How it is done:
The initial bioluminescent background signal may come from residual D-luciferin present in the sample. High-performance liquid chromatography (HPLC) analysis could not detect any D-luciferin at a concentration below 0.1 μM. However, addition of firefly luciferase can efficiently detect and consume the residual free D-luciferin.
To further confirm the quenching effect of dabcyl in D-Bluco, another control, Am-Bluco, was prepared that is structurally similar to D-Bluco but with dabcyl replaced by a structure lacking the broad absorption between 400 and 530 nm (FIG. 1).

Test [2] deals with KPC-3, BlaC, TEM-1, IMP-1, AmpC, OXA-48. Put plainly: Bioluminescence with panel of recombinant β-lactamases of clinical relevance. It is filed as biochemical. How it is done:
(§1) FIGS. 9A and 9B illustrates bioluminescent studies of D-Bluco and O-Bluco treating with various β-lactamases. 10 μM of Bluco, D-Bluco and O-Bluco incubated with 20 nM TEM-1 for 15 min in PBS at r.t. The bioluminescent signals for each compound was evaluated with or without the addition of TEM-1 by a luminator. […] The relative bioluminescent was calculated by removing background signal in PBS.
Having confirmed the quenching ability of dabcyl to lower D-Bluco bioluminescent background emission, the activity of D-Bluco towards a variety of β-lactamases that are of clinical relevance in addition to TEM-1, including KPC-3, BlaC (Class A), AmpC (Class C), and OXA-48 (Class D) was then assessed. These enzymes were recombinantly expressed and purified. The bioluminescent signal was measured with an IVIS optical imaging system after treating D-Bluco with each enzyme for 2 hours at room temperature.
D-Bluco and O-Bluco were evaluated with various β-lactamase that of clinical relevance (FIG. 9B and 9C), including KPC-3, BlaC, TEM-1 (Class A), IMP-1 (Class B), AmpC (Class C), and OXA-48 (Class D). These enzymes were recombinantly expressed, purified as previously described^25. The bioluminescent signal was measured after incubating O-Bluco or D-Bluco with each enzyme at different concentrations for 2 hr at r.t. […] This compares favorably to previously reported fluorescent cephalosporin probe with a 1000-fold sensitivity improvement.^26
(§2) The caged luciferin probes were incubated with different concentrations of TEM-1 β-lactamase or IMP-1 carbapenemase (0.001-0.1 fmol) in PBS (pH=7.4) for 2 hr at 25° C. Then a mixture of luciferase (200 nM), ATP (2 mM), and MgCl2 (4 mM) was added, and bioluminescent signals were detected with a SpectraMax microplate reader or a luminator.

Test [3] concerns the target T1, TEM-1. The class given is biochemical. More on the design: made in house. The conditions noted are these: 10 μM probe, TEM-1 20 nM, 15 min, PBS pH 7.4, r.t. As for the experimental part:
RLU indicates relative light units.
as §1
The bioluminescence emission from the released D-luciferin was measured. […] Also evaluated was whether there was interference between luciferase and β-lactamases in such dual enzyme reaction system.
The signal to background ratio for D-Bluco, O-Bluco, and Bluco was measured following the addition of the firefly luciferase (fLuc).
as §2

The target of test [4] is T1, TEM-1. Kind of test: Fluorescence turn-on of caged luciferin probes with recombinant TEM-1 bla. The class given is biochemical. Also on record: made in house. As for the experimental part: D-Bluco was evaluated as to whether it could be processed by β-lactamase to release luciferin with one of the most prevalent Ambler class A β-lactamases, TEM-1.
Both probes were evaluated to with TEM-1 bla, one of the most abundant β-Lactamases for initial testing. The fluorescent signal of D-Bluco and O-Bluco incubated with 100 nM TEM-1 bla was examined with a microplate reader over a period of 40 minutes.
General information: All chemicals were purchased from commercial sources and used without further purification. […] QuantiLum Recombinant luciferase (catalog number E1701) was purchased from Promega (Madison, WI). Reaction progress was monitored by analytical thin layer chromatography (TLC) with 0.25 mm silica gel 60F plates and visualized with fluorescent indicator (254 nm). Flash column chromatography was conducted using silica gel (SiliaFlash for flash column, 40-63 μm, 60 Å). The ^1H and ^13C NMR spectra were acquired on a Varian 500 MHz or 600 MHz magnetic resonance spectrometer. Data for ^1H NMR spectra are reported as follows: chemical shifts are reported as δ in units of parts per million (ppm) relative to chloroform-d (δ 7.26, s); multiplicities are reported as follows: s (singlet), d (doublet), t (triplet), q (quartet), dd (doublet of doublets), m (multiplet), or br (broadened); coupling constants are reported as a J value in Hertz (Hz); and the number of protons (n) for a given resonance is indicated nH and based on the spectral integration values. High resolution mass spectra were obtained on a Thermo Exactive Orbitrap LC/MS. HPLC was performed on a Dionex HPLC System (Dionex Corporation) equipped with a GP50 gradient pump and an inline diode array UV-Vis detector. A reversed-phase C18 (Phenomenax, 5 μm, 10×250 mm or Dionex, 5 μm, 4.6×250 mm) column was used with a MeCN (B)/H2O (A) gradient mobile phase containing 0.1% trifluoroacetic acid at a flow of 1 or 3 mL/min for the analysis. Fluorescence Spectra and kinetic experiments were collected by a SpectraMax iD3 multimode microplate reader (Molecular Device, San Jose, CA).

T2 sequence (P08659 whole entry): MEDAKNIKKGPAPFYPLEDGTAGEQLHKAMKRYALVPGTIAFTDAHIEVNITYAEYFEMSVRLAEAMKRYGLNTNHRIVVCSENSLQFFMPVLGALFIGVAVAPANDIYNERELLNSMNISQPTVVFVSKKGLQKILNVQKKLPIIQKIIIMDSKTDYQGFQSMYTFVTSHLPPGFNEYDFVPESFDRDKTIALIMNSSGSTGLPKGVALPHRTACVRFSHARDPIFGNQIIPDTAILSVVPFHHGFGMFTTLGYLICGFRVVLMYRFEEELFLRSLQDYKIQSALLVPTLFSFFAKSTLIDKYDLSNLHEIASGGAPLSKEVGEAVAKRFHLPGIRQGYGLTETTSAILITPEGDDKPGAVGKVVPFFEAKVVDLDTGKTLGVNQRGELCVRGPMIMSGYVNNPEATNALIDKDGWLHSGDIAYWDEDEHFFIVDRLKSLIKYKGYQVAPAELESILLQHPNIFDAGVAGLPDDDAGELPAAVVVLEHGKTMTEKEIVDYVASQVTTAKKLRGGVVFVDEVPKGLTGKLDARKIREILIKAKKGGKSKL
T1 sequence (P62593 24-286 limits assumed): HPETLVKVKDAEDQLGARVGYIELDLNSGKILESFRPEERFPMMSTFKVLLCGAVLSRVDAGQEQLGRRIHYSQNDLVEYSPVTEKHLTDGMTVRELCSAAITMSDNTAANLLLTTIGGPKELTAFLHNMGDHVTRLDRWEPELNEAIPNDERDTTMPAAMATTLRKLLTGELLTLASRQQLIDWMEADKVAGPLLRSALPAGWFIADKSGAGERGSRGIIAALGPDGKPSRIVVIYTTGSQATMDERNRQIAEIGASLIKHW
IMP-1, sequence (P52699 19-246): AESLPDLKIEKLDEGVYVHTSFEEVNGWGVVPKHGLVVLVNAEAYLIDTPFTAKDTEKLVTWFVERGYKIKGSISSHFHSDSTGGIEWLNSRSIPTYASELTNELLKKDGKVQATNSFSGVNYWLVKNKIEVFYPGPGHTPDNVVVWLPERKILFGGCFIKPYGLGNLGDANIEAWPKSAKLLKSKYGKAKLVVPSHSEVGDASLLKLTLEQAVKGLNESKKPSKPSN

For the molecule `O=C(O)[C@H]1CSC(c2nc3ccc(O)cc3s2)=N1` [D-luciferin], the “difference in bioluminescent signal of D-luciferin with or without IMP-1” value at IMP-1 was “No significant differences”. Further, the “difference in bioluminescent signal of D-luciferin with or without TEM-1” value on TEM-1 [1] is reported as “No significant differences”.

`O=C(CCCCCNC(=O)c1ccc(NC(=O)c2ccccc2)cc1)NC1C(=O)N2C(C(=O)O)=C(COc3ccc4nc(C5=NC(C(=O)O)CS5)sc4c3)C[S+]([O-])C12` (stereo not shown) [Am-Bluco, 7-(6-(4-benzamidobenzamido)hexanamido)-3-(((2-(4-carboxy-4,5-dihydrothiazol-2-yl)benzo[d]thiazol-6-yl)oxy)methyl)-8-oxo-5-thia-1-azabicyclo[4.2.0]oct-2-ene-2-carboxylic acid 5-oxide]: at firefly luciferase, the “oxidation of probe incubated with firefly luciferase (mass spectrometry)” value was “oxidized” and the “bioluminescence emission on additional batches of firefly luciferase” value is “produced bioluminescence emission upon each addition of firefly luciferase”.

Regarding `O=C(Cc1ccccc1)NC1C(=O)N2C(C(=O)O)=C(COc3ccc4nc(C5=N[C@H](C(=O)O)CS5)sc4c3)C[S+]([O-])C12` (stereo partly shown) [Bluco, reference compound], at firefly luciferase, the “oxidation of probe incubated with firefly luciferase (mass spectrometry)” value is given as “oxidized” and the “bioluminescence emission on additional batches of firefly luciferase” value was “still bioluminescence emission”. In test [2] (each enzyme 2 hours at room temperature, IVIS imaging), the “bioluminescence triggered by β-lactamases TEM-1, KPC-3, BlaC, AmpC, OXA-48” value is recorded as “significant bioluminescence”. For the same molecule, the “fold increase in bioluminescence emission upon TEM-1 treatment (turn-on ratio, signal with TEM-1 over signal without TEM-1)” value at TEM-1 [3] is 41.3 fold.

As for `O=C(Cc1ccccc1)NC1C(=O)N2C(C(=O)O)=C(COc3ccc(COc4ccc5nc(C6=N[C@@H](C(=O)O)CS6)sc5c4)cc3)C3(CC3)SC12` (stereo partly drawn) [O-Bluco, 4-((4-(((2-((S)-4-carboxy-4,5-dihydrothiazol-2-yl)benzo[d]thiazol-6-yl)oxy)methyl)phenoxy)methyl)-7-oxo-8-(2-phenylacetamido)-2-thia-6-azaspiro[bicyclo[4.2.0]octane-3,1′-cyclopropan]-4-ene-5-carboxylic acid], in test [2], the “sensitivity improvement over previously reported fluorescent cephalosporin probes” value was 1000 fold. Further, the “detection limits for the panel of enzymes” value in test [2] (KPC-3, BlaC, TEM-1, IMP-1, AmpC, OXA-48, 2 hr at r.t.) is “within the femtomole range”. Besides, the “fold increase in fluorescence emission in the presence of TEM-1” value at TEM-1 [4] (1 μM probe, TEM-1 100 nM, 40 min, PBS pH 7.4, r.t., excitation 330 nm, emission 530 nm) worked out at 32.7 fold. Also, on TEM-1 [4] (TEM-1 bla 100 nM, monitored over 40 minutes), the “course of fluorescence signal with TEM-1 bla” value is “gradual increase of signal”. The “fold increase in bioluminescence emission upon TEM-1 treatment (turn-on ratio, signal with TEM-1 over signal without TEM-1)” value on TEM-1 [3] stood at 100.5 fold.
